# EP4509511A1, “SUBSTITUTED SPIRO-ISOXAZOLINYL LACTAMS, SALTS THEREOF AND THEIR USE AS HERBICIDALLY ACTIVE SUBSTANCES” (Bayer Aktiengesellschaft, priority 2023, dated 2025)
# How the values were obtained:
# ECHCG [1] = assay: Herbicidal post-emergence action - Part I; assay type: in vivo, Echinochloa crus-galli; settings: one-leaf stage, rated visually after about 3 weeks vs untreated controls
# In short: (§1)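 Activity was scored visually as % damage (100% = dead, 0% = like untreated) about 3 weeks after treatment. Plants at the one-leaf stage, 2-3 weeks old, were sprayed with WP/EC formulations plus 0.5% additive (600 L/ha water, up to 1280 g/ha). Plants were grown in sandy loam in a greenhouse.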
# VERPE [2] = assay: Herbicidal post-emergence action - Part I; assay type: in vivo, Veronica persica; settings: one-leaf stage, rated visually after about 3 weeks vs untreated controls
# In short: as §1
# SETVI [3] = assay: Herbicidal post-emergence action - Part II; assay type: in vivo, Setaria viridis; settings: 320 g/ha; Table E7c
# In short: (§2)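 Post-emergence greenhouse test: weeds and crops in sandy loam sprayed at single-leaf stage, 2–3 weeks after sowing, with WP or EC formulations in water plus 0.5% additive at 600 l water/ha. Rates 320 g/ha or below. Visual rating after ca. 3 weeks versus untreated controls, % effect (100% = plants dead).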
# ABUTH [4] = assay: Herbicidal pre-emergence action - Part II; assay type: in vivo, Abutilon theophrasti; settings: visual grading after ca. 3 weeks vs untreated controls
# Text: (§3) Seeds of mono- and dicotyledonous weed plants and crop plants were sown, in plastic or organic planting pots, in sandy loam and covered with soil. The compounds according to the invention, formulated in the form of wettable powders (WP) or as emulsifiable concentrates (EC), were applied to the surface of the covering soil as aqueous suspension or emulsion, with the addition of 0.5% of an additive, at an application rate of 600 1 of water/ha (converted). Following treatment, the pots were placed in a greenhouse and kept under optimum growth conditions for the test plants. The visual grading of the damage to the test plants was carried out after ca. 3 weeks in comparison to untreated controls (herbicidal effect in percent (%): 100% effect = plants have died off, 0% effect = as control plants). Tables C1 to C12 below show the effects of selected compounds of the general formula (I) according to table 1 on various harmful plants and an application rate corresponding to 320 g/ha or below obtained by the experimental procedure mentioned above. Table C1: pre-emergence activity at 320g/ha against ABUTH in %
# VERPE [5] = assay: Herbicidal post-emergence action - Part II; assay type: in vivo, Veronica persica
# In short: as §2
# DIGSA = assay: Herbicidal pre-emergence action - Part I; assay type: in vivo, Digitaria sanguinalis; settings: visual grading after ca. 3 weeks vs untreated controls
# In short: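 In this greenhouse pre-emergence test, formulated compounds with 0.5% additive were applied at 1280 g/ha or below onto the soil covering sown weed seeds in sandy loam. After roughly three weeks, plant damage was scored by eye in percent versus untreated controls.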
# AVEFA = assay: Herbicidal pre-emergence action - Part II; assay type: in vivo, Avena fatua; settings: 320 g/ha; Table C4
# Text: as §3
# LOLRI = assay: Herbicidal pre-emergence action - Part I; assay type: in vivo, Lolium rigidum; settings: visual grading after ca. 3 weeks vs untreated controls
# Text: Seeds of mono- and dicotyledonous weed plants were sown in plastic pots (double sowings with one species of mono- and one species of dicotyledonous weed plants per pot), in sandy loam, and covered with soil. The compounds according to the invention, formulated in the form of wettable powders (WP) or as emulsifiable concentrates (EC), were applied to the surface of the covering soil as aqueous suspension or emulsion, with the addition of 0.5% of an additive, at an application rate of 600 1 of water per hectare (converted). Following treatment, the pots were placed in a greenhouse and kept under optimum growth conditions for the test plants. The visual grading of the damage to the test plants was carried out after ca. 3 weeks in comparison to untreated controls (herbicidaleffectinpercent(%):100%effect=plantshavediedoff,0%effect=ascontrolplants). [formula]
# Tables A1 to A12, below, show the effects of selected compounds of the general formula (I) according to table 1 on various harmful plants and an application rate corresponding to 1280 g/ha or below obtained by the experimental procedure mentioned above. Table A1: pre-emergence activity at 1280g/ha against ABUTH in %
# ECHCG [6] = assay: Herbicidal post-emergence action - Part II; assay type: in vivo, Echinochloa crus-galli; settings: 320 g/ha; Table E3b
# Text: Seeds of mono- and dicotyledonous weed plants and crop plants were sown, in plastic or organic planting pots, in sandy loam, covered with soil and grown in a greenhouse under controlled growth conditions. 2 to 3 weeks after sowing, the test plants were sprayed in the single-leaf stage. The compounds according to the invention, formulated in form of wettable powders (WP) or as emulsifiable concentrates (EC), were sprayed onto the green plant parts as aqueous suspension or emulsion, with the addition of 0.5% of an additive, at an application rate of 600 1 of water/ha (converted). The test plants were placed in the greenhouse for ca. 3 weeks under optimum growth conditions, and then the effect of the preparations was assessed visually in comparison with untreated controls (herbicidal effect in percent (%): 100% effect = plants have died off, 0% effect = as control plants). Tables E1 to E10 below show the effects of selected compounds of the general formula (I) according to table 1 on various harmful plants and an application rate corresponding to 320 g/ha or below obtained by the experimental procedure mentioned above. Table E1a: post-emergence activity at 5g/ha against ABUTH in %
# VERPE [7] = assay: Herbicidal pre-emergence action - Part II; assay type: in vivo, Veronica persica
# Text: as §3
# SETVI [8] = assay: Herbicidal post-emergence action - Part I; assay type: in vivo, Setaria viridis; settings: one-leaf stage, rated visually after about 3 weeks vs untreated controls
# Description: (§4) Seeds of mono- and dicotyledonous weed plants were placed in plastic pots in sandy loam soil (doubly sown with in each case one species of mono- or dicotyledonous weed plants per pot), covered with soil and cultivated in a greenhouse under controlled growth conditions. 2 to 3 weeks after sowing, the test plants were treated at the one-leaf stage. The compounds of the invention, formulated in the form of wettable powders (WP) or as emulsion concentrates (EC), were applied onto the green parts of the plants as aqueous suspension or emulsion with addition of 0.5% additive at a water application rate of 600 liters per hectare (converted). After the test plants had been kept in the greenhouse under optimum growth conditions for about 3 weeks, the activity of the preparations was rated visually in comparison to untreated controls. For example, 100% activity = the plants have died, 0% activity = like control plants. Tables B1 to B12, below, show the effects of selected compounds of the general formula (I) according to table 1 on various harmful plants and an application rate corresponding to 1280 g/ha or below obtained by the experimental procedure mentioned above. Table B1a: post-emergence activity at 1280g/ha against ABUTH in %
# VIOTR = assay: Herbicidal post-emergence action - Part II; assay type: in vivo, Viola tricolor; settings: 320 g/ha; Table E9c
# In short: as §2
# ALOMY = assay: Herbicidal post-emergence action - Part I; assay type: in vivo, Alopecurus myosuroides; settings: one-leaf stage, rated visually after about 3 weeks vs untreated controls
# Description: as §4
# ABUTH [9] = assay: Herbicidal post-emergence action - Part II; assay type: in vivo, Abutilon theophrasti; settings: 320 g/ha; Table E1c
# In short: as §2
# POLCO = assay: Herbicidal pre-emergence action - Part II; assay type: in vivo, Polygonum convolvulus; settings: 320 g/ha; Table C9
# Text: as §3
structure (smiles),measurement,setting,value
Cc1ccsc1C1=NOC2(CCCN(Cc3c(F)cccc3F)C2=O)C1 (racemic) [Compound I-2],post-emergence activity at 320g/ha against ECHCG in %,ECHCG [1]; 320 g/ha,90%
same,post-emergence activity at 1280g/ha against ECHCG in %,ECHCG [1]; 1280 g/ha,90%
same,post-emergence activity at 320g/ha against VERPE in %,VERPE [2]; 320 g/ha,90%
same,post-emergence activity at 1280g/ha against VERPE in %,VERPE [2]; 1280 g/ha,90%
same,post-emergence activity against SETVI,SETVI [3],90%
same,pre-emergence activity at 320g/ha against ABUTH in %,ABUTH [4],80%
same,post-emergence activity against VERPE,"VERPE [5]; 80 g/ha, Table E8c",90%
same,post-emergence activity against VERPE,"VERPE [5]; 320 g/ha, Table E8d",90%
same,pre-emergence activity at 320g/ha against DIGSA in %,DIGSA; 320 g/ha,100%
same,pre-emergence activity at 1280g/ha against DIGSA in %,DIGSA; 1280 g/ha,100%
same,pre-emergence activity against AVEFA,AVEFA,80%
same,pre-emergence activity at 320g/ha against LOLRI in %,LOLRI; 320 g/ha,100%
same,pre-emergence activity at 1280g/ha against LOLRI in %,LOLRI; 1280 g/ha,100%
same,post-emergence activity against ECHCG,ECHCG [6],90%
same,pre-emergence activity against VERPE,"VERPE [7]; 80 g/ha, Table C11b",90%
same,pre-emergence activity against VERPE,"VERPE [7]; 320 g/ha, Table C11a",90%
same,post-emergence activity at 80g/ha against SETVI in %,SETVI [8]; 80 g/ha,90%
same,post-emergence activity at 320g/ha against SETVI in %,SETVI [8]; 320 g/ha,90%
same,post-emergence activity at 1280g/ha against SETVI in %,SETVI [8]; 1280 g/ha,90%
same,post-emergence activity against VIOTR,VIOTR,80%
same,post-emergence activity at 1280g/ha against ALOMY in %,ALOMY,90%
same,post-emergence activity against ABUTH,ABUTH [9],80%
same,pre-emergence activity against POLCO,POLCO,80%
